Source: patent publication US6142972A, “Method and apparatus for the delivery of elongate solid drug compositions” (Delab, priority 1998, dated 2000)

Tests used:
[1] = pure insulin, depending on purity; cited from earlier work
[2] = Pharmacokinetics of SOMATULINE™ filament vs liquid solution in dogs (FIGS. 4A and 4B); assay type: in vivo; conditions: dog, blood
Description: FIGS. 4A and 4B are graphs showing the blood level in a dog of a somatostatin analog, SOMATULINE™ (BIM-23014C, Biomeasure, Milford Mass.) after implantation of a solid filament compared to a liquid solution of BIM-23014C.
The above protocol was performed by mixing 1.500 g of HEC and 8.500 g of water. 0.42250 g of the resulting gel was added to 0.06395 g of BIM 23014. The mixture was extruded through a […] (0.3 mm internal diameter needle), collected, and dried under vacuum for 24 hours. The dried filament contained 0.107 mg of BIM 23014/cm (weight percentage 50% HEC and 50% BIM 23014).
The filaments were tested for pharmacokinetics and compared to liquid infusions of the same dosage of SOMATULINE™ in dogs. The results are shown in the graphs in FIGS. 4A, 4B, and 5. […] However, the blood concentration decreased to less than 0.1 ng/ml within about 2 hours, to less than 0.001 within about 8 hours, and to about 0.0005 ng/ml in less than 12 hours. On the other hand, the blood concentration of SOMATULINE™ provided by the solid drug filament was at an almost constant level over 0.1 ng/ml for the first 10 hours, declined to about 0.002 ng/ml within 24 hours, and declined further to 0.0005 ng/ml by 72 hours.

| Compound | Insulin Units (IU) per mg [1] | concentration at 10 h ([2]; solid drug filament, first 10 hours, read-out: blood concentration of SOMATULINE™ (almost constant level)) [ng/mL] | concentration at 24 h ([2]; solid drug filament, within 24 hours) [ng/mL] | C0 ([2]; solution formulation, initial, read-out: blood concentration of SOMATULINE™, initial) [ng/mL] | concentration at 2 h ([2]; solution formulation, within about 2 hours) [ng/mL] | concentration at 8 h ([2]; solution formulation, within about 8 hours) [ng/mL] |
| --- | --- | --- | --- | --- | --- | --- |
| recombinant human insulin: pure insulin, e.g., recombinant human insulin | 26 to 28 Insulin Units (IU) per mg | – | – | – | – | – |
| CC(C)[C@@H]1NC(=O)[C@H](CCCCN)NC(=O)[C@@H](Cc2c[nH]c3ccccc23)NC(=O)[C@H](Cc2ccc(O)cc2)NC(=O)[C@@H](NC(=O)[C@H](N)Cc2ccc3ccccc3c2)CSSC[C@@H](C(=O)N[C@H](C(N)=O)[C@@H](C)O)NC1=O [SOMATULINE™] | – | > 0.1 | ~0.002 | ~0.5 | < 0.1 | < 0.001 |
